The text below walks through data of publication PMC12415548 (RSC Advances, 2025).

In data set [1] the test system is MRSA biofilm. The data set can be described thus: Antibiofilm activity, crystal violet assay. Type of data set: cell-based, Staphylococcus aureus.
Data set [2] concerns MRSA (Staphylococcus aureus ATCC 43300). The data set can be described thus: Minimum bactericidal concentration. In kind it is cell-based. The note with it: for Interpretation (of MBC/MIC): Table 4.
In data set [3] the test system is MDA-MB-231 breast cancer cell line. The data set can be described thus: MTT cytotoxicity assay, MDA-MB-231. In kind it is cell-based. The note with it: Homo sapiens, MDA-MB-231, read-out: IC50 (μg mL^−1) ± SD MDA-MB231. Background: Tetrazolium assays rely on reduction of a dye to a coloured formazan, in cell work by metabolically active cells.
Data set [4] deals with MCF-7 cells. Put plainly: Apoptosis induction in MCF-7 cells. The note with it: MCF-7 cells (Fig. 4). In kind it is cell-based, human.
Data set [5] relates to MDA-MB-231 cells. Put plainly: Apoptosis induction in MDA-MB-231 cells. In kind it is cell-based, human. The note with it: MDA-MB-231 cells (Fig. 4).
Data set [6] relates to normal HDF cells. The data set can be described thus: Apoptosis/cytotoxicity in normal HDF cells.
Data set [7] concerns the target AChE (Homo sapiens, UniProt P22303). The data set can be described thus: Anticholinesterase inhibitory assay. In kind it is biochemical.
The test system of data set [8] is MRSA (Staphylococcus aureus ATCC 43300). Put plainly: Anti-MRSA MIC, broth microdilution. The note with it: for anti-MRSA potency compared to Linezolid: MIC comparison; for Interpretation (of MIC): MRSA, Table 3. Type of data set: cell-based.
The test system of data set [9] is MCF-7 breast cancer cell line. The data set can be described thus: MTT cytotoxicity assay, MCF-7. Type of data set: cell-based. The note with it: Homo sapiens, MCF7, read-out: IC50 (μg mL^−1) ± SD MCF7.
For data set [10], the system named is MRSA. Put plainly: Time-kill assay against MRSA. The note with it: 0-24 h. Type of data set: cell-based, Staphylococcus aureus.
In data set [11] the test system is MCF-7 breast cancer cell line. The note with it: read-out: IC50 in MCF-7; known value quoted for comparison; no reference given; cited from earlier work.

≈ marks a conversion by molar mass, not a printed value. Where two headings read alike, the source gives them in different places.

Chain of AChE (P22303 32-614): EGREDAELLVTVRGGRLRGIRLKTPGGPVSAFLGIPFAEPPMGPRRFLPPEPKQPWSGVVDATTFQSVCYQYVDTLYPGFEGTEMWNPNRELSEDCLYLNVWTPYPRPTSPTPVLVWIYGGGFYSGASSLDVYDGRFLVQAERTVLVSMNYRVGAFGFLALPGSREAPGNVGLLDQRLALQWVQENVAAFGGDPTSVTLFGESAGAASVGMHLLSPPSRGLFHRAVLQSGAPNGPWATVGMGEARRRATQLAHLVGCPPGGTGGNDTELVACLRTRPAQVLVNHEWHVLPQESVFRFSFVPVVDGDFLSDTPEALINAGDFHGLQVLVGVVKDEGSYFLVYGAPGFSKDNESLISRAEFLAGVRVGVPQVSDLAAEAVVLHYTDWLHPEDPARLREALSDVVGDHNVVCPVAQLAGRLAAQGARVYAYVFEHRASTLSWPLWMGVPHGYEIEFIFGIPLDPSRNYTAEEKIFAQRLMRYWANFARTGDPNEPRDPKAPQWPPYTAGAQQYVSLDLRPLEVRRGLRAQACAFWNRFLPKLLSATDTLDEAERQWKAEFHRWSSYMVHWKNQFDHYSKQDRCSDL

Regarding `CN1C(=O)/C(=N\Nc2ncc(-c3cc4ccccc4oc3=O)s2)c2cc(Cl)ccc21` [Compound 5, (Z)-5-chloro-1-methyl-3-(2-(5-(2-oxo-2H-chromen-3-yl)thiazol-2-yl)hydrazono)indolin-2-one], the inhibition at 1.3 µg/mL in [1] (Staphylococcus aureus, MRSA, read-out: inhibition of MRSA biofilm formation) is approximately 40%. In addition, the “eradication of preformed MRSA biofilms” value in [1] (various concentrations (Fig. 8Z)) was “eradication efficiency increasing in a concentration-dependent manner”. The compound also gave an MBC/MIC in data set [2] of 5.7. In data set [2], the “Interpretation (of MBC/MIC)” value is “Moderate bactericidal”. Further, the IC50 is 14.4 ± 1.89 µg/mL (≈ 33.1 µM) in data set [3], 99.8 nM in data set [7] and 10.8 ± 1.19 µg/mL (≈ 24.8 µM) in [9]. The apoptosis induction entry in data set [4] and in [5] was “moderate apoptosis” in each case. The “apoptosis / cytotoxicity in normal cells” value in data set [6] is recorded as “significantly lower cytotoxicity”. Also, in data set [8], the “anti-MRSA potency compared to Linezolid” value is recorded as “superior potency”. In addition, the “Interpretation (of MIC)” value in [8] is listed as “Extremely potent”.

For the compound `CCc1ccc(N2C(=O)/C(=C3/C(=O)N(C)c4ccc(Cl)cc43)NC2=S)cc1` [Compound 9, (Z)-5-chloro-3-(1-(4-ethylphenyl)-5-oxo-2-thioxoimidazolidin-4-ylidene)-1-methylindolin-2-one], the IC50 in data set [3] came out at 28.4 ± 2.19 µg/mL (≈ 71.4 µM); in [7] it was 302 nM; in [9], 24 ± 1.49 µg/mL (≈ 60.3 µM). The “anti-MRSA potency compared to Linezolid” value in [8] is “significantly less potent”. In addition, the “Interpretation (of MIC)” value in data set [8] is “Weak activity”.

As for `CN1C(=S)N(c2ccccc2)C(=O)/C1=C1/C(=O)N(C)c2ccc(Cl)cc21` [Compound 12, (Z)-5-chloro-1-methyl-3-(3-methyl-5-oxo-1-phenyl-2-thioxoimidazolidin-4-ylidene)indolin-2-one], the IC50 in data set [3] came to 27.3 ± 2.01 µg/mL (≈ 71.1 µM); in data set [9], 16 ± 1.15 µg/mL (≈ 41.7 µM).

`COc1cccc2c1C(=O)c1c(O)c3c(c(O)c1C2=O)C[C@@](O)(C(=O)CO)C[C@@H]3O[C@H]1C[C@H](N)[C@H](O)[C@H](C)O1` [Doxorubicin, reference compound]: the IC50 stood at 36.6 ± 2.12 µg/mL (≈ 67.3 µM) in [3] and 25.1 ± 1.67 µg/mL (≈ 46.3 µM) in data set [9].

Regarding `CC(=O)NC[C@H]1CN(c2ccc(N3CCOCC3)c(F)c2)C(=O)O1` [Linezolid, reference compound], in data set [2], the MBC/MIC came out at 17.6 and the “Interpretation (of MBC/MIC)” value is reported as “Bacteriostatic”. In addition, the time-kill outcome in [10] was “remained bacteriostatic, showing no significant kill at any time point”.

Regarding `CC1(C)CCC(c2ccc(Cl)cc2)=C(CN2CCN(c3ccc(C(=O)NS(=O)(=O)c4ccc(N[C@H](CCN5CCOCC5)CSc5ccccc5)c(S(=O)(=O)C(F)(F)F)c4)cc3)CC2)C1` [Navitoclax, reference compound], the apoptosis induction result in [4] and in [5] was “high levels of apoptosis” each time. For the same compound, the “apoptosis / cytotoxicity in normal cells” value in data set [6] was “high levels of apoptosis”. The IC50 in data set [11] is 1000 nM.

The inhibition is the relative decrease from the control value, in per cent. Broadly, the IC50 is the concentration needed to halve the response being measured.
